Reference: patent US11464864B2, “Drug-bound compound and use thereof” (priority 2018, dated 2022)
Read-outs that look alike come from different tables or passages of the source.

Experiments:
HeLa cells [1] = assay: Identification of cell uptake by confocal microscopy; type: cell-based; conditions: 10 µM compound, serum-free DMEM, 37° C., 30 minutes
Procedure: (§1) High glucose Dulbecco's modified Eagle's medium (DMEM), Roswell Park Memorial Institute (RPMI) 1640, Dulbecco's phosphate buffered saline, pH 7.4 (DPBS), fetal bovine serum (FBS), and trypsin/EDTA were obtained from Gibco™ and Thermo Fischer Scientific. Mitotracker and Lysotracker were obtained from Invitrogen Inc. (USA). 3-(4,5-Dimethyl-2-thiazolyl)-2,5-diphenyl-2H-tetrazolium bromide (MTT) was purchased from Sigma-Aldrich Korea Ltd. All solutions were prepared using Milli-Q purified water […]. HeLa cells were cultured in 10% (v/v) FBS containing DMEM and penicillin at 37° C. under a wet 5% CO2 environment. For SW480 cells and HT-29 cells, RMPI 1640 medium was used.
(§2) HeLa cells (1×10^5 cells per well) were seeded in a 35 mm cover glass bottom dish (SPL Life Sciences Co., Ltd., Korea) and incubated for 24 hours. […] After incubation at 37° C. for 30 minutes, the cells were washed three times with cold PBS to remove non-internalized samples. Live HeLa cells were examined with a confocal laser scanning microscope (Olympus Fluoview FV1000) equipped with an oil immersion lens (NA 1.30, 40×). […] Each analysis was repeated three times.

HeLa cells [2] = test system: HeLa cells
Procedure: as §2

HT-29 cells = assay: Measurement of cytotoxicity, MTT assay; type: cell-based; conditions: Homo sapiens, 48 hours incubation, read-out: IC50 (cell viability, MTT)
Procedure: as §1
(§3) SW480 cells and HT-29 cells (4.5×10^3 cells per well) were seeded in a 96-well plate. After 24 hours, the medium was replaced with serum-free RMPT 1640. […] The treated cells were incubated for 48 hours, washed with cold PBS, and then exposed to MTT in the medium for 4 hours. The medium was replaced with DMSO, and the dissolved formazan dye was quantified by measuring the absorbance at 500 nm. Non-treated cells were measured in the same manner as a control.

SW480 cells = assay: Measurement of cytotoxicity, MTT assay; type: cell-based; conditions: Homo sapiens, 48 hours incubation, read-out: IC50 (cell viability, MTT)
Procedure: as §1, §3

Compound	Cell uptake (intracellular FITC fluorescence in live cells) (HeLa cells [1])	Intracellular localization (HeLa cells [2]; HeLa cells, 10 μM)	Intracellular localization (HeLa cells [2]; HeLa cells, 20 μM, incubated 30 minutes)	Co-localization with Lysotracker (lysosomal marker) (HeLa cells [2]; HeLa cells, Lysotracker 200 nM)	Co-localization with Mitotracker (mitochondrial marker) (HeLa cells [2]; live HeLa cells, 10 uM for 30 minutes, then Mitotracker 100 nM for 30 minutes)	IC50 (HT-29 cells) [nM]	IC50 (SW480 cells) [nM]
1-O-[20-O—(N-succinyl-6-aminohexanoyl)camptothecin]-2,3,4,5-tetra-O—(N-{bis-[3-N′,N″-bis-(tert-butoxycarbonyl)-guanidino)-propyl]}-6-aminohexanoyl)-6-O-[6-(fluoresceinyl-5-thioureido)-hexanoyl]-D-sorbitol⋅8HCl [compound (10)]	strong green fluorescence appears mainly in the cytoplasm	intracellular localization for mitochondria	fluorescence exists even inside the nucleus	co-localization was not observed	Co-localization was markedly observed		
20-O-[6-(fluoresceinyl-5-thioureido)-hexanoyl)camptothecin [compound (4)]	intracellular fluorescence was not observed						
CC[C@@]1(O)C(=O)OCc2c1cc1n(c2=O)Cc2cc3ccccc3nc2-1 [CPT, Camptothecin]						990	1530
